Experimental data published in patent publication US20100003217A1, “Compounds and Pharmaceutical Compositions for the Treatment of Viral Infections” (priority 2008, published 2010).
Values joined by “and” are separate entries in the source; they are usually repeats but may differ in a detail not shown here. Identical values can stand only once.

Columns and labels:
[1] = tested on: human primary hepatocytes; experiment: Metabolic disposition of [^14C]-Compound 1 and [^14C]-2′-C-methyl guanosine in human primary hepatocytes (incubation medium, cellular extracts, nucleotide levels); assay type: in vitro ADME; settings: for Major metabolites observed in cellular extracts (% of total radioactivity): human hepatocytes Hu775, 1 μM [^14C]-2′-C-methyl guanosine
Method: (§1) Primary hepatocytes: Freshly isolated cells from animal and human liver were obtained in suspension on ice. Cells were pelleted by centrifugation at 70-75×g (rat) or 95-90×g (monkey and human) and resuspended at 0.8 million cells per mL of platting medium (William's E supplemented with 5% FBS, 0.5% penicillin-streptomycin, 1% L-glutamine, 4 μg/mL insulin and 1 μM dexamethasone). Multi-well collagen I-coated plates (rat tail collagen type I; 12- or 6-well) were then seeded by addition of 1 mL (12-well; 0.8 million cells/well) or 2 mL (6-well; 1.6 million cells/well) of cell suspension. The plates were gently shaken to evenly distribute the cells and placed in an incubator at 37° C. for approximately 4 to 6 hours to allow cells to attach. Once cells were attached, the platting medium was removed and replaced with hepatocyte culture medium (William's E supplemented with penicillin-streptomycin, 1% L-glutamine, 1% insulin-transferrin-selenium and 0.1 μM dexamethasone). Cells were left overnight in an incubator at 37° C. to acclimatize to culture and the medium.
(§2) Hepatocyte incubations with radiolabeled Compound 1 and 2′-C-methyl guanosine, both labeled in the C-8 position of the guanine moiety, were conducted at a final volume of 2.0 mL hepatocyte culture medium/well ([…]). Culture medium from overnight incubation of cells was removed and replaced with fresh medium, pre-warmed to 37° C., containing 1 or 10 μM [^14C]-Compound 1 ([…]) or [^14C]-2′-C-methyl guanosine (127 DPM/μmol) from a stock solution in DMSO (final DMSO concentration was 0.1%) or 50% ethanol (final ethanol concentration was 0.2%). After 1, 4, 8 and 24 hours, 0.5-1.0 mL of incubation medium was removed and stored at −20° C. until analysis (described below). The remaining medium was discarded and cell monolayers were carefully washed two times with ice-cold PBS. Following the last wash, all PBS was carefully removed and 1.0 mL of extraction solution (ice-cold 70% methanol) added. Cells were scrapped off and suspended in the extraction solution, transferred to 2 mL polypropylene microfuge tubes and intracellular contents extracted overnight at −20° C.
(§3) Preliminary identification of putative metabolites was conducted by comparing the retention time of observed metabolites in incubation medium and cellular extracts with retention times obtained with chemically synthesized standards using the chromatography conditions described below. Further identification of 2′-C-methyl guanosine nucleotides (mono-, di- and triphosphate) was carried out by incubating cellular extract samples with alkaline phosphatase (10 units for 60 min at 37° C.) and comparing the HPLC retention times of the resulting nucleosides with that of authentic 2′-C-methyl guanosine.
(§4) Cellular extracts were prepared by centrifugation at 16,000 RCF using an Eppendorf microcentrifuge (Eppendorf, Model 5415D) for 10 min to remove cellular debris. An aliquot of 5-10 μL of the supernatant was added to 5 mL of EcoLite™ (MP, Irvine, Calif.) liquid scintillation cocktail and radioactivity measured by liquid scintillation counting (LSC) using a Beckman Coulter LS6500 multipurpose liquid scintillation counter (Beckman Instruments, Fullerton, Calif.). The remaining sample was then dried using a Labconco refrigerated centrivap concentrator (Labconco, Kansas City, Mo.). Dry extracts were reconstituted in 120 μL of HPLC-grade water and centrifuged at 16,000 RCF using an Eppendorf microcentrifuge for 10 min. Prior to HPLC analysis (described below), radioactivity of the concentrated extracts was measured by LSC using 5 μL aliquots. Extraction recovery was then determined by comparing total radioactivity in extracts before and after drying. The remaining extract was then analyzed by HPLC with online radioactivity detection using a Flow Scintillation Analyzer Radiomatic™ 515TR. Radioactivity in the separated components was quantified by integrating the peaks using Flo-One™ Software (Perkin Elmer Life Sciences). […]

[2] = tested on: monkey primary hepatocytes; experiment: Metabolic disposition of [^14C]-Compound 1 and [^14C]-2′-C-methyl guanosine in monkey primary hepatocytes (incubation medium, cellular extracts, nucleotide levels); assay type: in vitro ADME, Cynomolgus monkey; settings: for Major metabolites observed in cellular extracts (% of total radioactivity): 10 μM [^14C]-2′-C-methyl guanosine
Method: as §1, §2, §3, §4

[3] = human hepatocytes (Hu775), 1 μM [^14C]-Compound 1, 1 h
[4] = human hepatocytes (Hu775), 1 μM [^14C]-Compound 1, 8 h
[5] = human hepatocytes (Hu775), 1 μM [^14C]-Compound 1, 24 h

With `C[C@@]1(O)[C@H](O)[C@@H](CO)O[C@H]1n1cnc2c(=O)[nH]c(N)nc21` [2′-C-methyl guanosine, 9-(2-C-methyl-β-D-ribofuranosyl)guanine, reference compound] the “metabolites observed in cellular extracts (% of total radioactivity)” value ([1]; human hepatocytes (Hu759, Hu775), 10 μM [^14C]-2′-C-methyl guanosine, 1 h) was 97.1% and 94.9%, the “metabolites observed in cellular extracts (% of total radioactivity)” value ([1]; human hepatocytes (Hu759, Hu775), 10 μM [^14C]-2′-C-methyl guanosine, 4 h) was 87.3% and 77.3% and the “metabolites observed in cellular extracts (% of total radioactivity)” value ([1]; human hepatocytes (Hu759, Hu775), 10 μM [^14C]-2′-C-methyl guanosine, 8 h) was 73.9% and 61.4%. For the same molecule, the “metabolites observed in cellular extracts (% of total radioactivity)” value ([1]; human hepatocytes (Hu759, Hu775), 10 μM [^14C]-2′-C-methyl guanosine, 24 h) was 52.4% and 40.2%, the “metabolites observed in cellular extracts (% of total radioactivity)” value ([1]; human hepatocytes (Hu759, Hu775), 10 μM [^14C]-Compound 1, 1 h) was 3.69% and 3.75% and the “metabolites observed in cellular extracts (% of total radioactivity)” value ([1]; human hepatocytes (Hu759, Hu775), 10 μM [^14C]-Compound 1, 4 h) was 4.20% and 3.10%. The “metabolites observed in cellular extracts (% of total radioactivity)” value ([1]; human hepatocytes (Hu759, Hu775), 10 μM [^14C]-Compound 1, 8 h) was 7.52% and 5.89%, the “metabolites observed in cellular extracts (% of total radioactivity)” value ([1]; human hepatocytes (Hu759, Hu775), 10 μM [^14C]-Compound 1, 24 h) was 10.3% and 9.06% and the “metabolites observed in medium (% of total radioactivity)” value ([1]; human hepatocytes (Hu775), 1 μM [^14C]-Compound 1, 0 h) was “BLD^a”. The “metabolites observed in cellular extracts (% of total radioactivity)” value [1, 3] was “BLD^a”, the “metabolites observed in medium (% of total radioactivity)” value [1, 3] was “BLD” and the “metabolites observed in cellular extracts (% of total radioactivity)” value [1, 4] was 4.34%. The “metabolites observed in medium (% of total radioactivity)” value [1, 4] was 9.20% and 9.22%, the “metabolites observed in cellular extracts (% of total radioactivity)” value [1, 5] was 9.05% and the “metabolites observed in medium (% of total radioactivity)” value [1, 5] was 39% and 38.7%. The “metabolites observed in medium (% of total radioactivity)” value ([1]; human hepatocytes (lots Hu759, Hu775), 10 μM [^14C]-Compound 1, 0 h) was “BLD^b and BLD”, the “metabolites observed in medium (% of total radioactivity)” value ([1]; human hepatocytes (lots Hu759, Hu775), 10 μM [^14C]-Compound 1, 1 h) was “BLD and BLD^a” and the “metabolites observed in medium (% of total radioactivity)” value ([1]; human hepatocytes (lots Hu759, Hu775), 10 μM [^14C]-Compound 1, 4 h) was 1.7% and 1.6%. For the same molecule, the “metabolites observed in medium (% of total radioactivity)” value ([1]; human hepatocytes (lots Hu759, Hu775), 10 μM [^14C]-Compound 1, 8 h) was 4.6% and 7%, the “metabolites observed in medium (% of total radioactivity)” value ([1]; human hepatocytes (lots Hu759, Hu775), 10 μM [^14C]-Compound 1, 24 h) was 22.1% and 29% and the “Major metabolites observed in cellular extracts (% of total radioactivity)” value ([1]; 1 h) was 94.6 % of total radioactivity. The “Major metabolites observed in cellular extracts (% of total radioactivity)” value ([1]; 8 h) was 65.8 % of total radioactivity, the “Major metabolites observed in cellular extracts (% of total radioactivity)” value ([1]; 24 h) was 41.3 % of total radioactivity and the “metabolites observed in cellular extracts (% of total radioactivity)” value ([2]; monkey hepatocytes (Cy230, Cy234), 10 μM [^14C]-Compound 1, 1 h) was 1.68% and 3.04%. For the same molecule, the “metabolites observed in cellular extracts (% of total radioactivity)” value ([2]; monkey hepatocytes (Cy230, Cy234), 10 μM [^14C]-Compound 1, 8 h) was 0.95% and 2.06%, the “metabolites observed in cellular extracts (% of total radioactivity)” value ([2]; monkey hepatocytes (Cy230, Cy234), 10 μM [^14C]-Compound 1, 24 h) was 2.31% and 1.25% and the “metabolites observed in cellular extracts (% of total radioactivity)” value ([2]; monkey hepatocytes (Cy234), 10 μM [^14C]-Compound 1, 4 h) was 1.35%. For the same molecule, the “metabolites observed in medium (% of total radioactivity)” value ([2]; monkey hepatocytes (lot Cy234), 10 μM [^14C]-Compound 1, 4 h) was 6.8%, the “metabolites observed in medium (% of total radioactivity)” value ([2]; monkey hepatocytes (lots Cy230, Cy234), 10 μM [^14C]-Compound 1, 0 h) was “BLD^c and BLD” and the “metabolites observed in medium (% of total radioactivity)” value ([2]; monkey hepatocytes (lots Cy230, Cy234), 10 μM [^14C]-Compound 1, 8 h) was 10.4% and 14.8%. The “metabolites observed in medium (% of total radioactivity)” value ([2]; monkey hepatocytes (lots Cy230, Cy234), 10 μM [^14C]-Compound 1, 24 h) was 48.8% and 35.6%, the “Major metabolites observed in cellular extracts (% of total radioactivity)” value ([2]; monkey hepatocytes Cy230, 1 h) was 96.4 % of total radioactivity and the “Major metabolites observed in cellular extracts (% of total radioactivity)” value ([2]; monkey hepatocytes Cy230, 8 h) was 77.3 % of total radioactivity. For the same molecule, the “Major metabolites observed in cellular extracts (% of total radioactivity)” value ([2]; monkey hepatocytes Cy230, 24 h) was 65.0 % of total radioactivity, the “Major metabolites observed in cellular extracts (% of total radioactivity)” value ([2]; monkey hepatocytes Cy234, 1 h) was 86.9 % of total radioactivity and the “Major metabolites observed in cellular extracts (% of total radioactivity)” value ([2]; monkey hepatocytes Cy234, 4 h) was 57.9 % of total radioactivity. The “Major metabolites observed in cellular extracts (% of total radioactivity)” value ([2]; monkey hepatocytes Cy234, 8 h) was 45.8 % of total radioactivity and the “Major metabolites observed in cellular extracts (% of total radioactivity)” value ([2]; monkey hepatocytes Cy234, 24 h) was 29.0 % of total radioactivity.
